Converted amounts (≈) assume the structure as drawn.
Experiments:
[1] = not given; remark: listed apart in the source
[2] = not given; remark: listed apart in the source
physchem [3] = assay: physchem
Description: Dissociation constant (pKa)

Pasteurella multocida [4] = format: functional
Description: Log value of the Minimum inhibitory concentration against Pasteurella multocida.

physchem [5] = assay: physchem; remark: listed apart in the source
Description: Dissociation constant (pKa)

physchem [6] = assay: physchem; remark: listed apart in the source
Description: Dissociation constant (pKa)

Mus musculus = species: Mus musculus; assay: Protective dose at which 50% of infected, treated mice survive; format: functional; conditions: read-out: PD50
Pasteurella multocida [7] = assay: Minimum inhibitory concentration against Pasteurella multocida.; format: functional
Pasteurella multocida [8] = assay: Minimum inhibitory concentration against Pasteurella multocida; format: functional

Row | pNF | pCF [1] | Log K [2] | pKa (physchem [3]) | Log 1/MIC (Pasteurella multocida [4]) | pKa (physchem [5]) | pKa (physchem [6]) | Compound | ED50 (Mus musculus) [mg/kg] | MIC (Pasteurella multocida [7]) [µg/mL] | MIC (Pasteurella multocida [8]) [µg/mL]
1 | 1.446 | 0.016 | 0.86 | 8.83 |  |  |  | CCC1OC(=O)CC(O)C(C)C(O[C@@H]2O[C@H](C)C[C@H](N(C)C)[C@H]2O)C(CC=O)CC(C)C(=O)/C=C/C(C)=C/C1C (stereo partly specified) |  |  | 
2 | 2.413 | 0.863 | -0.23 | 5.61 | 2.44 | 8.19 | 8.95 | CC[C@H]1OC(=O)CC(O)[C@H](C)[C@@H](O[C@@H]2O[C@H](C)C[C@H](N(C)C)[C@H]2O)[C@@H](CCN(C)CCN(C)C)C[C@@H](C)C(=O)/C=C/C(C)=C/[C@@H]1C (stereo partly specified) |  |  | 
3 | 4.887 | 2.157 | 0.19 | 7.97 | 3.22 | 8.88 | 10.1 | CC[C@H]1OC(=O)CC(O)[C@H](C)[C@@H](O[C@@H]2O[C@H](C)C[C@H](N(C)C)[C@H]2O)[C@@H](CCNCCCN(C)C)C[C@@H](C)C(=O)/C=C/C(C)=C/[C@@H]1C (stereo partly specified) |  |  | 
4 | 3.437 | 1.217 | 0.1 | 8.59 | 3.79 | 9.62 |  | CC[C@H]1OC(=O)CC(O)[C@H](C)[C@@H](O[C@@H]2O[C@H](C)C[C@H](N(C)C)[C@H]2O)[C@@H](CCNCCO)C[C@@H](C)C(=O)/C=C/C(C)=C/[C@@H]1C (stereo partly specified) |  |  | 
5 | 3.481 | 1.161 | 0.43 | 8.53 | 4.12 | 9.72 |  | CC[C@H]1OC(=O)CC(O)[C@H](C)[C@@H](O[C@@H]2O[C@H](C)C[C@H](N(C)C)[C@H]2O)[C@@H](CCNCC(C)(C)CO)C[C@@H](C)C(=O)/C=C/C(C)=C/[C@@H]1C (stereo partly specified) |  |  | 
6 | 4.138 | 1.938 | -0.12 | 7.81 | 3.27 | 8.78 | 9.6 | CC[C@H]1OC(=O)CC(O)[C@H](C)[C@@H](O[C@@H]2O[C@H](C)C[C@H](N(C)C)[C@H]2O)[C@@H](CCN(CCCN(C)C)C(=O)[C@H](C)N)C[C@@H](C)C(=O)/C=C/C(C)=C/[C@@H]1C (stereo partly specified) |  |  | 
7 | 3.067 | 1.307 | -0.16 | 7.03 | 3.27 | 8.53 | 9.16 | CC[C@H]1OC(=O)CC(O)[C@H](C)[C@@H](O[C@@H]2O[C@H](C)C[C@H](N(C)C)[C@H]2O)[C@@H](CCN(C)CCCN(C)C(=O)[C@H](C)N)C[C@@H](C)C(=O)/C=C/C(C)=C/[C@@H]1C (stereo partly specified) |  |  | 
8 | 1.005 | 0.045 | 0.17 | 8.36 | 2.39 |  |  | CC[C@H]1OC(=O)C[C@@H](O)[C@H](C)[C@@H](O[C@@H]2O[C@H](C)[C@@H](O)[C@@H](N(C)C)[C@H]2O)[C@@H](CC=O)C[C@@H](C)C(=O)/C=C/C(C)=C/[C@@H]1CO[C@@H]1O[C@H](C)[C@@H](O)[C@@H](OC)[C@H]1OC |  |  | 
9 |  |  |  |  |  |  |  | CO[C@@H]1[C@@H](O[C@@H]2O[C@H](C)[C@@H](O[C@H]3C[C@@](C)(O)[C@@H](OC(=O)CC(C)C)[C@@H](C)O3)[C@@H](N(C)C)[C@H]2O)[C@@H](CC=O)C[C@@H](C)C(=O)/C=C/C=C/C[C@@H](C)OC(=O)C[C@H]1OC(C)=O | > 150 | 6.25 (≈ 7.57 µM) | 
10 | 3.099 | 1.189 | 0.23 | 8.56 | 3.53 | 9.31 |  | CC[C@H]1OC(=O)CC(O)[C@H](C)[C@@H](O[C@@H]2O[C@H](C)C[C@H](N(C)C)[C@H]2O)[C@@H](CCNC2C(O)CCCC2O)C[C@@H](C)C(=O)/C=C/C(C)=C/[C@@H]1C (stereo partly specified) |  |  | 
11 | 2.391 | 0.891 | 0.02 | 6.81 | 4.15 | 8.13 | 8.9 | CC[C@H]1OC(=O)CC(O)[C@H](C)[C@@H](O[C@@H]2O[C@H](C)C[C@H](N(C)C)[C@H]2O)[C@@H](CCN(C)CCN(C)C(=O)[C@H](C)N)C[C@@H](C)C(=O)/C=C/C(C)=C/[C@@H]1C (stereo partly specified) |  |  | 

Row | Compound | pNF | pCF [1] | Log K [2] | pKa (physchem [3]) | Log 1/MIC (Pasteurella multocida [4]) | pKa (physchem [5]) | pKa (physchem [6]) | ED50 (Mus musculus) [mg/kg] | MIC (Pasteurella multocida [7]) [µg/mL] | MIC (Pasteurella multocida [8]) [µg/mL]
12 | CO[C@H]1C[C@H](O[C@H]2[C@H](C)[C@@H](O[C@@H]3O[C@H](C)C[C@H](N(C)C)[C@H]3O)[C@@H](C)CC3(CO3)C(=O)[C@H](C)[C@@H](O)[C@@H](C)[C@@H](C)OC(=O)[C@@H]2C)O[C@@H](C)[C@@H]1O (single isomer, unassigned) [OLEANDOMYCIN] | 1.455 | 0.015 | 0.01 | 8.84 |  |  |  | > 150 | 6.25 (≈ 9.09 µM) | 
13 | CC[C@H]1OC(=O)[C@H](C)[C@@H](O[C@H]2C[C@@](C)(OC)[C@@H](O)[C@H](C)O2)[C@H](C)[C@@H](O[C@@H]2O[C@H](C)C[C@H](N(C)C)[C@H]2O)[C@](C)(O)C[C@@H](C)CN(C)[C@H](C)[C@@H](O)[C@]1(C)O [AZITHROMYCIN] | 3.41 | 1.36 | 0.38 |  |  |  |  | 16 |  | 0.05 (≈ 0.0668 µM)
14 | CO[C@@H]1[C@@H](O[C@@H]2O[C@H](C)[C@@H](O[C@H]3C[C@@](C)(O)[C@@H](OC(=O)CC(C)C)[C@H](C)O3)[C@H](N(C)C)[C@H]2O)[C@@H](CC=O)C[C@@H](C)C(=O)/C=C/[C@@H]2O[C@H]2C[C@@H](C)OC(=O)C[C@H]1OC(C)=O [CARBOMYCIN A] | 0.419 | 0.209 | 1.48 | 7.61 |  |  |  | > 150 | 1.56 (≈ 1.85 µM) | 
15 | CC[C@H]1OC(=O)[C@H](C)[C@@H](O[C@H]2C[C@@](C)(OC)[C@@H](O)[C@H](C)O2)[C@H](C)[C@@H](O[C@@H]2O[C@H](C)C[C@H](N(C)C)[C@H]2O)[C@](C)(OC)C[C@@H](C)C(=O)[C@H](C)[C@@H](O)[C@]1(C)O [CLARITHROMYCIN] | 1.601 | 0.011 | 0.63 |  |  |  |  | 100 | 0.39 (≈ 0.521 µM) | 
16 | CC[C@H]1OC(=O)[C@H](C)[C@@H](O[C@H]2C[C@@](C)(OC)[C@@H](O)[C@H](C)O2)[C@H](C)[C@@H](O[C@@H]2O[C@H](C)C[C@H](N(C)C)[C@H]2O)[C@](C)(O)C[C@@H](C)C(=O)[C@H](C)[C@@H](O)[C@]1(C)O [ERYTHROMYCIN] | 1.494 | 0.014 | 0.35 | 8.88 |  |  |  | > 150 | 0.78 (≈ 1.06 µM) | 
17 | CC[C@H]1OC(=O)C[C@@H](O)[C@H](C)[C@@H](O[C@@H]2O[C@H](C)C[C@H](N(C)C)[C@H]2O)[C@@H](CC=O)C[C@@H](C)C(=O)/C=C/[C@]2(C)O[C@H]2[C@@H]1C [ROSARAMICIN] | 1.407 | 0.017 | 0.63 | 8.79 |  |  |  | 68 | 0.2 (≈ 0.344 µM) | 
18 | CC[C@H]1OC(=O)C[C@@H](O)[C@H](C)[C@@H](O[C@@H]2O[C@H](C)[C@@H](O)[C@H](N(C)C)[C@H]2O)[C@@H](CCN2C[C@H](C)C[C@H](C)C2)C[C@@H](C)C(=O)/C=C/C(C)=C/[C@@H]1CO[C@@H]1O[C@H](C)[C@@H](O)[C@@H](OC)[C@H]1OC [TILMICOSIN] | 3.007 | 0.847 | 0.26 | 8.18 |  | 9.56 |  | 100 | 1.56 (≈ 1.79 µM) | 
19 | CC[C@H]1OC(=O)C[C@@H](O)[C@H](C)[C@@H](O[C@@H]2O[C@H](C)[C@@H](O[C@H]3C[C@@](C)(O)[C@@H](O)[C@H](C)O3)[C@H](N(C)C)[C@H]2O)[C@@H](CC=O)C[C@@H](C)C(=O)/C=C/C(C)=C/[C@@H]1CO[C@@H]1O[C@H](C)[C@@H](O)[C@@H](OC)[C@H]1OC [TYLOSIN] | 0.497 | 0.167 | 0.68 | 7.73 |  |  |  | 86 | 25 (≈ 27.3 µM) | 

— ChEMBL document CHEMBL1130001, “Quantitative structure-activity relationships among macrolide antibacterial agents: in vitro and in vivo potency against Pasteurella multocida” (J Med Chem, 1997)
